From ChEMBL document CHEMBL3596163, “Discovery of imidazo[1,5-a]pyridines and -pyrimidines as potent and selective RORc inverse agonists” (Bioorg Med Chem Lett, 2015) come the findings set out here.

Activity calls are given as the source filed them. No cut-off for these calls is given here.

The test system of data set [1] is PBMC. Put plainly: Antiinflammatory activity in human PBMC assessed as inhibition of IL-17 production after 48 hrs by Sandwich ELISA relative to control. The format is functional. In general terms: An ELISA detects its analyte on a solid surface through an enzyme-linked reagent.
For data set [2], the target named is T1, Oxysterols receptor LXR-beta (Homo sapiens, UniProt P55055).
T1 sequence (P55055 whole entry): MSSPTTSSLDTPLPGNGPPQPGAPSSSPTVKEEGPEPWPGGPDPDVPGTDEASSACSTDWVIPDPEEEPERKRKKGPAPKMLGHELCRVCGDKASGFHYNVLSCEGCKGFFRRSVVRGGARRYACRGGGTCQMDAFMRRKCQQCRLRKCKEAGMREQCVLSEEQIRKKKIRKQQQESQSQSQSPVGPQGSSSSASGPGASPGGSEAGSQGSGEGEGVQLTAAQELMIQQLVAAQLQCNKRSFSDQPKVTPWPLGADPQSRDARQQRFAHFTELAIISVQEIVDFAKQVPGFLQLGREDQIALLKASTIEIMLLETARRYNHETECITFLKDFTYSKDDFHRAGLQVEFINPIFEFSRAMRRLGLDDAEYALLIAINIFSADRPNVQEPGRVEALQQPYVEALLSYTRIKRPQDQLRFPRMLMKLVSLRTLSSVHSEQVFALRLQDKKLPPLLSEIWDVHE
Put plainly: Agonist activity at GAL4-fused human LXRbeta expressed in HEK293T cells assessed as activation of basal transcriptional activity after 20 hrs by dual-glo luciferase reporter gene assay. The format is cell-based, HEK-293T. On the technique in general: In a reporter assay the amount or activity of a reporter protein is the signal.

The target of data set [3] is T2, Nuclear receptor subfamily 1 group I member 2 (Homo sapiens, UniProt O75469).
T2 sequence (O75469 whole entry): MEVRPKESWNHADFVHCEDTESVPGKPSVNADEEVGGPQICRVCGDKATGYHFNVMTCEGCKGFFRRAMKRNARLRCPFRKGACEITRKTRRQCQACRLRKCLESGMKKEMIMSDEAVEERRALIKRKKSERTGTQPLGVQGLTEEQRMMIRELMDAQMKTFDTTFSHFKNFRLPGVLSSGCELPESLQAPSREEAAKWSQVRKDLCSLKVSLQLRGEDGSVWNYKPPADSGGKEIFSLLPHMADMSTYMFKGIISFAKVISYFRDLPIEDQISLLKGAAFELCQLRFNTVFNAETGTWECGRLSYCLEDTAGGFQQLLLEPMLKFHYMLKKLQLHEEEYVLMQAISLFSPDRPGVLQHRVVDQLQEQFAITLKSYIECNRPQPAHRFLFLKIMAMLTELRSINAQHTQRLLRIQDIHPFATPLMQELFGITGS
The data set is described as follows: Agonist activity at GAL4-fused human PXR expressed in HEK293T cells assessed as activation of basal transcriptional activity after 20 hrs by dual-glo luciferase reporter gene assay. The format is cell-based, HEK-293T.

The target of data set [4] is T3, Nuclear receptor ROR-alpha (Homo sapiens, UniProt P35398).
T3 sequence (P35398 whole entry): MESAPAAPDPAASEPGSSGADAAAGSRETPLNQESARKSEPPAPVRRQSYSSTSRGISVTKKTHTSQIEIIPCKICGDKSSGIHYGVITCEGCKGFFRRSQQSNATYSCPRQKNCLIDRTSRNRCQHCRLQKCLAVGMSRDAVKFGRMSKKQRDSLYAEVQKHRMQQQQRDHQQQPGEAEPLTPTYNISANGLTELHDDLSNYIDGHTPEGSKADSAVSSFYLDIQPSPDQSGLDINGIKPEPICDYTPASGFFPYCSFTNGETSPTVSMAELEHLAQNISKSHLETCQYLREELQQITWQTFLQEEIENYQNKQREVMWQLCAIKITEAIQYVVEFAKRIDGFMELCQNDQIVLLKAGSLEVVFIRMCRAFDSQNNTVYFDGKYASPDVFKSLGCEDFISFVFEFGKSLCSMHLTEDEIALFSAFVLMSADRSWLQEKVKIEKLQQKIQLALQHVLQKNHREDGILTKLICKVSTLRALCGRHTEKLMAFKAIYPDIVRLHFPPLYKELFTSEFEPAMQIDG
The data set is described as follows: Inverse agonist activity at GAL4-fused human RORa expressed in HEK293T cells assessed as suppression of basal transcriptional activity after 20 hrs by dual-glo luciferase reporter gene assay. The format is cell-based, HEK-293T.

Data set [5] deals with PBMC. Put plainly: Cytotoxicity against human PBMC assessed as effect on cell physiology after 48 hrs by CellTiter-Glo assay. The format is cell-based. For orientation: Cellular ATP, detected with luciferase, serves as a proxy for viable cell number.
Data set [6] has as its target T4, Oxysterols receptor LXR-beta (Homo sapiens) (UniProt P55055).
T4 sequence (whole entry): T1 sequence (P55055 whole entry)
Put plainly: Antagonist activity at GAL4-fused human LXRbeta expressed in HEK293T cells assessed as inhibition of T0901317-induced basal transcriptional activity up to 10 uM after 20 hrs by dual-glo luciferase reporter gene assay. The format is cell-based. To be noted: HEK-293T.

The target of data set [7] is T5, Oxysterols receptor LXR-alpha (Homo sapiens, UniProt Q13133).
T5 sequence (Q13133 whole entry): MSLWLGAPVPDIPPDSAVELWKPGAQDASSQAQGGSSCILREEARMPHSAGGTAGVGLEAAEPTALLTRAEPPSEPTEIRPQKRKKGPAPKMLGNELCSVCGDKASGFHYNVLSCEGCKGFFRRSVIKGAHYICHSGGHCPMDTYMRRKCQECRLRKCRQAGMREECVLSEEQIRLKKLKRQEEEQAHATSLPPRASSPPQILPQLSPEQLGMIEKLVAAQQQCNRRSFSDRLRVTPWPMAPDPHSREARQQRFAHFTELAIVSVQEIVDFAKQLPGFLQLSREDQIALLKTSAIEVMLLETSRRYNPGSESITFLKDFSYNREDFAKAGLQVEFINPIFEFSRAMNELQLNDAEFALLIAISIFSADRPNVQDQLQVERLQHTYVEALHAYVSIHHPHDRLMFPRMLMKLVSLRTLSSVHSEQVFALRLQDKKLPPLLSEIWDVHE
Put plainly: Agonist activity at GAL4-fused human LXRalpha expressed in HEK293T cells assessed as activation of basal transcriptional activity after 20 hrs by dual-glo luciferase reporter gene assay. The format is cell-based, HEK-293T.

Data set [8] addresses T6, Bile acid receptor (Homo sapiens) (UniProt Q96RI1).
T6 sequence (whole entry): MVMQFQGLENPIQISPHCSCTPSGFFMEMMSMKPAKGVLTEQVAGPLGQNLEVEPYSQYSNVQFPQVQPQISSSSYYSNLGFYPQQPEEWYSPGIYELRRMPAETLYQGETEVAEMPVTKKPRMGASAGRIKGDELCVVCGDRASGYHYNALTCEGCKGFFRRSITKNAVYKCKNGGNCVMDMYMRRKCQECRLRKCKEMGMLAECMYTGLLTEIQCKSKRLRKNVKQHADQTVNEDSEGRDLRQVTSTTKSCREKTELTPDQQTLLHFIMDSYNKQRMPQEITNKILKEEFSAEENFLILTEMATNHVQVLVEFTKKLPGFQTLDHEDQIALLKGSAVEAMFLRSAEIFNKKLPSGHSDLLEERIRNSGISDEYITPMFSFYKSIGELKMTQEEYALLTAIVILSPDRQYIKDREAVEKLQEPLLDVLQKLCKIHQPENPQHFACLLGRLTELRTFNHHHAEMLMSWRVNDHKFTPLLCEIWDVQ
The data set is described as follows: Antagonist activity at GAL4-fused human FXR expressed in HEK293T cells assessed as inhibition of T0901317-induced basal transcriptional activity up to 10 uM after 20 hrs by dual-glo luciferase reporter gene assay. The format is cell-based. To be noted: HEK-293T.

Data set [9] is described as follows: Lipophilicity, log D of the compound at pH 7.4. To be noted: buffer. The format is physicochemical.
Data set [10] deals with PBMC. Put plainly: Inhibition of IFNgamma production in human PBMC after 48 hrs by Sandwich ELISA. The format is functional, cell-based.

For `O=C(O)c1ccc(-c2nc(C(=O)c3c(Cl)cccc3C(F)(F)F)n3ccccc23)c(F)c1`, the “%max” value in the data set on PBMC [1] turned out to be 63%. Moreover, the EC50 (in [2]; in data set [3]; in data set [4]; with PBMC [5]; in [7]; in the data set on PBMC [10]) was greater than 10 µM each time. In addition, the inhibition result in data set [6] and in data set [8] was “inactive” in each case. Also, the logD in data set [9] was 1.8.

As for `O=C(O)c1ccc(-c2nc(C(=O)c3c(Cl)cccc3C3CC3)n3cccnc23)cc1O`, the “%max” value in the data set with PBMC [1] stood at 73%. The EC50 (in [2]; in data set [3]; in [4]; in the data set with PBMC [5]; in data set [7]; with PBMC [10]) was greater than 10 µM each time. The inhibition result in data set [6] and in data set [8] was “inactive” throughout. This compound yielded a logD in data set [9] of 1.5.

`O=C(O)c1ccc(-c2nc(C(=O)c3c(Cl)cccc3C(F)(F)F)n3ccccc23)cc1`: the “%max” value in the data set with PBMC [1] came to 69%. Moreover, the EC50 (in data set [2]; in [3]; in data set [4]; in the data set with PBMC [5]; in data set [7]; in the data set on PBMC [10]) was greater than 10 µM throughout. In addition, the inhibition entry in data set [6] and in data set [8] was “inactive” each time. In data set [9], this compound came in with a logD of 1.5.

Take `O=C(O)c1ccc(-c2nc(C(=O)c3c(Cl)cccc3C(F)(F)F)n3c2CCCC3)c(F)c1`: the “%max” value with PBMC [1] came out at 64%. In addition, the EC50 (in data set [2]; in data set [3]; in data set [4]; with PBMC [5]; in [7]; in the data set on PBMC [10]) was greater than 10 µM throughout. The inhibition entry in data set [6] and in data set [8] was “inactive” throughout. Besides, in data set [9], the logD came out at 1.3.

As to `O=C(O)c1ccc(-c2nc(C(=O)c3c(Cl)cccc3C(F)(F)F)n3ccccc23)cc1O`, the “%max” value in the data set on PBMC [1] is given as 70%. Also, the EC50 (in data set [2]; in data set [3]; in [4]; in the data set on PBMC [5]; in data set [7]; in the data set on PBMC [10]) was greater than 10 µM in each case. Further, the inhibition entry in [6] and in [8] was “inactive” throughout. In addition, the logD in data set [9] was determined as 2.5.

Take `O=C(O)c1ccc(-c2nc(C(=O)c3c(Cl)cccc3C3CC3)n3c2CCCC3)c(F)c1`: the “%max” value in the data set with PBMC [1] was 72%. The EC50 (in data set [2]; in [3]; in data set [4]; in the data set with PBMC [5]; in [7]; with PBMC [10]) was greater than 10 µM throughout. Further, the inhibition result in data set [6] and in data set [8] was “inactive” each time. Moreover, the logD in data set [9] was 1.6.

The EC50 is the concentration needed to bring the measured effect to its halfway point. In general, logD refers to lipophilicity at a set pH, counting ionised and neutral species.
